This note sets out measurements from US20240391945A1, “NUCLEIC ACID SYNTHESIS METHOD USING SEGMENT-TYPE AMIDITE” (NITTO DENKO CORPORATION, priority 2020, published 2024).

A short description of the series: pKa values in water of the activators. The following applies: for pKa: read-out: pKa in H2O. Type of series: physicochemical.

Turning to `c1ccc(CSc2nnn[nH]2)cc1` [BTT, 5-benzylthiotetrazole], the pKa – broadly, the negative logarithm of the acid dissociation constant – is 4.1.
As for `Cn1nnnc1S` [Activator 1-Me-MCT, 5-mercapto-1-methyltetrazole], the pKa was determined as 3.86.
Regarding `Sc1nnnn1-c1ccccc1` [Activator 1-Ph-MCT, 5-mercapto-1-phenyltetrazole], the pKa stood at 3.65.
For saccharin 1-methylimidazole [SMI], the “pKa in H2O” value is recorded as 7.
As for `CCSc1nnn[nH]1` [ETT, 5-ethylthio-1H-tetrazole], the pKa was determined as 4.3.
